In ChEMBL document CHEMBL5729321, “Compound exhibiting enteropeptidase inhibitory activity” (2022):

Target: Enteropeptidase (Homo sapiens, UniProt P98073)
Test: Enteropeptidase Inhibition Assay: The inhibitory activity of the enteropeptidase inhibitor synthesized using the purified Recombinant Human Enteropeptidase and the substrate Acetyl-Asp-Asp-Asp-Asp-Lys-AFC (BioVision) was measured. 7.2 ng/mL of Enteropeptidase diluted with a buffer (20 mM Tris, 50 mM NaCl, pH 7.5) in a 96 well plate (Costar), 30 μM of Acetyl-Asp-Asp-Asp-Asp-Lys-AFC, several concentrations of Enteropeptidase inhibitors (1% DMSO concentration) were dispensed such that a final volume was 100 μL, and then the enzyme reaction was carried out at 30° C. for 1 hour. At this time, 1% DMSO, a substrate and Enteropeptidase instead of the compound were dispensed onto positive control wells, and 1% DMSO and a substrate were dispensed onto negative control wells. The enzyme reaction was started using an excitation wavelength of 380 nm and an emission wavelength of 500 nm in a fluorescence spectrometer, and then the rate of increase in fluorescence (milli-units per min) between 20 and 60 minutes was measured.

Chain of Enteropeptidase (P98073 2-784 limits assumed): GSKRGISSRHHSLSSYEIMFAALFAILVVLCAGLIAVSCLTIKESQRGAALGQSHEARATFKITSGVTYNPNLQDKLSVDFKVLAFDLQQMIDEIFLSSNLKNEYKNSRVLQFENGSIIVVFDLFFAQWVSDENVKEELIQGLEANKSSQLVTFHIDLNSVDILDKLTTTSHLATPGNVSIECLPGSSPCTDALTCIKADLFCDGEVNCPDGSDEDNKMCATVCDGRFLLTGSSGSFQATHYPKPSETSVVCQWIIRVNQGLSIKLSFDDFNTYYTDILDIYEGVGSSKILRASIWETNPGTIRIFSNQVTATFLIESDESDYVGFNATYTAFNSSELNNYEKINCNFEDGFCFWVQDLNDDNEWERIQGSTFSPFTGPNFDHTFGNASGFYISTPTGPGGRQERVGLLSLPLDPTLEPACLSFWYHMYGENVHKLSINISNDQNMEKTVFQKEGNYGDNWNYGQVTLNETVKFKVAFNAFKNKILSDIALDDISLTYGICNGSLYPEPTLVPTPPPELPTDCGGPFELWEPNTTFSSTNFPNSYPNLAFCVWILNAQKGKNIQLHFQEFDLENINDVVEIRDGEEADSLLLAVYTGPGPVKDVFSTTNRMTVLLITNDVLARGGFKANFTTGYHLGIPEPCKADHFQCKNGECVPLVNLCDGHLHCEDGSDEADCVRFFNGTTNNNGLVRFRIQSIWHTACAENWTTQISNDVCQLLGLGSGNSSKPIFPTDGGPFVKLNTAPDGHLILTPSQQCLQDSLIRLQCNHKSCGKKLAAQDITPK
Chain of Enteropeptidase (P98073 785-1019 limits assumed): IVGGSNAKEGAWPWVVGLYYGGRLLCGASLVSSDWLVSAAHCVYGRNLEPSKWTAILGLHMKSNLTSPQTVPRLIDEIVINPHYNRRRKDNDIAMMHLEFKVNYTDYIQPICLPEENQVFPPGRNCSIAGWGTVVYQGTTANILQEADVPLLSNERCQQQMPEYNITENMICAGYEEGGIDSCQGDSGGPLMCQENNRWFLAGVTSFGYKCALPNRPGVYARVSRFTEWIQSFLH

Compound | Ki [nM]
N=C(N)c1ccc(OC(=O)c2cnc(N3CCC(C(=O)N[C@@H](CC(=O)OCc4ccccc4)C(=O)OCc4ccccc4)CC3)s2)c(F)c1 | 8.2
CCN(CCC(=O)O)c1ncc(C(=O)Oc2ccc(C(=N)N)cc2F)s1 | 0.68
